According to patent US20240390487A1, “TLR AGONISTS FOR REDUCING ACTIVATION-INDUCED PD-1 EXPRESSION ON T CELLS AND METHODS OF USE” (WISCONSIN ALUMNI RESEARCH FOUNDATION, priority 2016, published 2024):

System: Purified DC
Test: IL-12 p70 ELISA of culture supernatant of TLR-agonist-stimulated DC
Format: cell-based, mice
Conditions: 24 hours, IL12 p70 by ELISA, versus media alone
Experimental: FIGS. 14A-14D. Changes in PD-1 expression following TLR stimulation are mediated by IL-12 secreted from APCs. Panel A: Purified OT-1 T cells (T), B cells (B), or dendritic cells (DC) were activated with SIINFEKL peptide (SEQ ID NO:1, OVA) or with a non-specific peptide (NS) in the presence of either TLR1/2 (TLR1/2) agonist, TLR7 agonist (TLR7), or media alone. After 24 hours, cells were washed and co-cultured with naïve purified OT-1 CD8+ T cells for an additional 24 hours and then assessed for expression of the indicated surface receptors (4-1BB, CD3, PD-1, LAG3, CTLA-4, and TIM3) by flow cytometry. Shown is the MFI for each marker, with samples assessed in triplicate. Panel B: Purified DC were stimulated in the presence of TLR1/2 agonist, TLR7 agonist, or media alone. After 24 hours, media was collected and used for culture of purified OT-1 CD8+ T cells with naïve DC in the presence of SIINFEKL peptide (SEQ ID NO:1, OVA) or non-specific (NS) peptide. After 24 hours, cells were assessed for expression of the indicated surface receptors (4-1BB, PD-1, LAG3, and CTLA-4) by flow cytometry. Shown is mean and standard error of the MFI for each marker, with samples assessed in triplicate. Panel C: Purified DC were stimulated in the presence of TLR1/2 agonist (Pam3), TLR3 agonist (PolyIC), TLR4 agonist (MPLA), TLR7/8 agonists (Gard, R848), TLR9 agonist (ODN), or media only (none) for 24 hours. Culture supernatant was then evaluated for the presence of IL12 p70 by ELISA. Asterisks indicate significant (p<0.05) IL-12 release compared to media alone. Panel D: Purified DC were stimulated in the presence of TLR1/2 agonist, TLR7 agonist, or media alone. After 24 hours, medium was collected and used for culture of purified OT-1 CD8+ T cells with naïve DC in the presence of SIINFEKL peptide (SEQ ID NO:1, OVA) and, where indicated, 0.1 ng/ml IL-12 or 0.12 μg/mL anti-IL-12 antibody. After 24 hours, cells were assessed for expression of the indicated surface receptors (4-1BB, PD-1, LAG3, and CTLA-4) by flow cytometry. Shown is mean and standard error of the MFI for each marker, with samples assessed in triplicate and are representative of two similar experiments. Asterisks indicate P<0.01.
Changes in PD-1 expression following TLR stimulation are mediated by IL-12 secreted from APCs: TLR are expressed by both T cells and professional APC. To determine if the effects on T-cell checkpoint expression were mediated by direct effects of TLR ligands on T cells or APC, purified OT-1 T cells were activated with SIINFEKL peptide (SEQ ID NO:1) alone or in the presence of TLR1/2 or TLR7 agonist, or with purified DC or B cells pre-treated with TLR agonists. After 24 hours cells were evaluated for expression of 4-1BB, CD3, PD-1, LAG-3, CTLA-4, and TIM-3. […]

Molecule	secretion of IL-12 by DC
CCNCc1nc2c(N)nc3ccccc3c2n1CC(C)(C)O [Gardiquimod]	greatest secretion
Monophosphoryl Lipid A [MPLAs]	No significant secretion
Pam3CSK4	greatest secretion
Poly(I:C) [PolyI:C]	No significant secretion
